Measured values reported in patent publication US7048907B2, “Synthesis, compositions and methods for the measurement of the concentration of stable-isotope labeled compounds in life forms and life form excretory products” (BioPhysics Assay Laboratory, Inc., priority 2001, dated 2006).

Tests used:
[1] = Kinetics of blood depletion and urine accumulation of chelates in the rat; format: in vivo; conditions: average of three rats
Description: One half ml of Sm-DTPA (0.01 mg/kg), dissolved in saline (pH 7), is injected into the tail vein of three rats. Samples of blood are obtained at 10, 30 and 60 minutes following injection and analyzed for Sm-DTPA by neutron activation. The percent of starting amount of the Sm-DTPA at each time interval is presented in Table 18 (last column on right). Similarly, the accumulation of Sm-DTPA in the rat urine at two times is shown in the last column of Table 18.
One half ml of Technetium-99m-DTPA (1 millicurie), Gd-DTPA (0.05 mg/kg), and Sm-DTPA (0.01 mg/kg) are each dissolved in saline (pH 7), and are injected simultaneously into the tail vein of three rats. Samples of blood are obtained at 10, 30 and 60 minutes following injection and analyzed for ^99mTc-DTPA (gamma counting), Gd-DTPA (T1 relaxation) and Sm-DTPA (neutron activation).
One half ml of Sm-DTPA, La-DTPA and Eu-DTPA (each 0.01 mg/kg), dissolved in saline (pH 7) are injected simultaneously into the tail vein of three rats. Samples of blood are obtained at 10, 30 and 60 minutes following injection and analyzed for each element by neutron activation.
Samples of Sm-DTPA, La-DTPA and Eu-DTPA (0.5 ml; 0.01 mg/kg), each dissolved in saline (pH 7), are injected sequentially at 0, 20, and 40 minutes into the tail vein of three rats. Samples of blood are obtained at 10, 30 and 60 min following each injection and analyzed for each element by neutron activation.

[2] = Assay of chelate on carboxymethyl (CM) Sephadex column (chelate formation, charge); format: physicochemical
[3] = Stability of chelates to autoclaving (CM-Sephadex assay); format: physicochemical; conditions: for % of total / dpm: autoclaved 30 minutes at 121° C.
Description: A sample comprising 5 ml of Sm-DTPA, La-DTPA, and Eu-DTPA prepared in Examples 9, 10, and 11 were placed in 10 ml glass bottles, each capped with a grey butyl rubber cap, and the caps were crimped. Samples were autoclaved for 30 minutes at 121° C.
Five ml of each of Sm-DOTA, La-DOTA, and Eu-DOTA prepared in Examples 13, 14, and 15 were placed in 10 ml glass bottles capped with a grey butyl rubber cap and crimped. Samples were autoclaved for 30 minutes at 121° C. Samples were allowed to cool to room temperature and were assayed as described in Examples 25.

[4] = Fraction 1: 3 ml 0.01M Tris pH 7.5 before sample
[5] = Fraction 2: 1 ml sample then 3 ml 0.01M Tris pH 7.5 (eluate)
[6] = Fraction 3: further 3 ml 0.01M Tris pH 7.5
[7] = Fraction 4: column and contents (retained)
[8] = Fraction 1: sample diluted 1:10 then 2-3 ml 0.01M Tris pH 7.5 (eluate)
[9] = Fraction 2: 3 ml 0.01M Tris pH 7.5
[10] = Fraction 3: column and contents (retained)

For O=C([O-])CN(CCN(CC(=O)[O-])CC(=O)[O-])CCN(CC(=O)[O-])CC(=O)[O-].[La+3] [La-DTPA], the “Percent of initial injection, blood” value ([1]; blood 10 min, Sm-DTPA, La-DTPA and Eu-DTPA (each 0.01 mg/kg i.v.) simultaneously administered (Example 31)) was 85% of initial injection, the “Percent of initial injection, blood” value ([1]; blood 10 min after each injection, Sm-DTPA, La-DTPA, Eu-DTPA (0.01 mg/kg i.v.) sequentially administered at 0, 20, 40 minutes (Example 32)) was 82% of initial injection and the “Percent of initial injection, blood” value ([1]; blood 30 min, Sm-DTPA, La-DTPA and Eu-DTPA simultaneously administered (Example 31)) was 63% of initial injection. For the same compound, the “Percent of initial injection, blood” value ([1]; blood 30 min after each injection, sequentially administered (Example 32)) was 62% of initial injection, the “Percent of initial injection, blood” value ([1]; blood 60 min, Sm-DTPA, La-DTPA and Eu-DTPA simultaneously administered (Example 31)) was 33% of initial injection and the “Percent of initial injection, blood” value ([1]; blood 60 min after each injection, sequentially administered (Example 32)) was 32% of initial injection. The “Percent of initial injection, urine” value ([1]; urine 30 min, Sm-DTPA, La-DTPA and Eu-DTPA simultaneously administered (Example 31)) was 23% of initial injection, the “Percent of initial injection, urine” value ([1]; urine 30 min, sequentially administered (Example 32)) was 25% of initial injection and the “Percent of initial injection, urine” value ([1]; urine 180 min, Sm-DTPA, La-DTPA and Eu-DTPA simultaneously administered (Example 31)) was 92% of initial injection. The “Percent of initial injection, urine” value ([1]; urine 180 min, sequentially administered (Example 32)) was 95% of initial injection, the “% eluted from the CM-Sephadex column” value [2] was 100% and the “% of total” value [2, 4] was 0 % of total. The dpm [2, 4] was 0 dpm, the “% of total” value [2, 5] was 100 % of total and the dpm [2, 5] was 489692 dpm. The “% of total” value [2, 6] was 0 % of total, the dpm [2, 6] was 0 dpm and the “% of total” value [2, 7] was 0 % of total. For the same compound, the dpm [2, 7] was 0 dpm, the “time within which the chelate forms” value ([2]; room temperature, Tris pH 7.5) was no more than 5 min and the “% eluted from CM-Sephadex column following autoclaving” value [3] was 100%. For the same compound, the “% of total” value [3, 8] was 97 % of total, the dpm [3, 8] was 411400 dpm and the “% of total” value [3, 9] was 3 % of total. For the same compound, the dpm [3, 9] was 12180 dpm, the “% of total” value [3, 10] was 0 % of total and the dpm [3, 10] was 0 dpm.
